Measured values taken from ChEMBL document CHEMBL4184262, “Iodine mediated pyrazolo-quinoline derivatives as potent anti-proliferative agents” (Bioorg Med Chem Lett, 2018).
pIC50: −log10 of the molar value.

Columns and labels:
Format in all cases: functional, cell-based
HeLa = assay: Antiproliferative activity against human HeLa cells incubated for 24 hrs by MTT assay
MCF7 = assay: Antiproliferative activity against human MCF7 cells incubated for 24 hrs by MTT assay; conditions: MCF7, 24 h
HepG2 = assay: Antiproliferative activity against human HepG2 cells incubated for 24 hrs by MTT assay; conditions: HepG2, 24 h
SK-N-SH = assay: Antiproliferative activity against human SK-N-SH cells incubated for 24 hrs by MTT assay
A549 = assay: Antiproliferative activity against human A549 cells incubated for 24 hrs by MTT assay; conditions: A549, 24 h

| SMILES | pIC50 (HeLa) | pIC50 (MCF7) | pIC50 (HepG2) | pIC50 (SK-N-SH) | pIC50 (A549) |
| --- | --- | --- | --- | --- | --- |
| Clc1ccc(-c2nc3ccccc3c3c2c(-c2ccccc2)nn3-c2ccccc2)c(Cl)c1 | 5.28 | 4.11 | 4.08 | 4.94 | 5.09 |
| c1ccc(-c2nc3ccccc3c3c2c(-c2ccccc2)nn3-c2ccccc2)cc1 | 4.61 | 4.49 | 4.73 | 5.28 | 4.78 |
| O=[N+]([O-])c1cccc(-c2nc3ccccc3c3c2c(-c2ccc(Br)cc2)nn3-c2ccccc2)c1 | 5.19 | 4.69 | 4.71 | 5.41 | 4.81 |
| Brc1ccc(-c2nn(-c3ccccc3)c3c2c(-c2cccc4ccccc24)nc2ccccc23)cc1 | 4.93 | 4.74 | 4.61 | 5.26 | 5.09 |
| COc1ccc(-c2nc3ccccc3c3c2c(-c2ccc(Br)cc2)nn3-c2ccccc2)c(OC)c1 | 4.92 | 4.98 | 4.37 | 5.42 | 4.39 |
| Clc1ccc(-c2nc3ccccc3c3c2c(-c2ccccc2)nn3-c2ccccc2)cc1 | 5.25 | 4.95 | 4.97 | 5.18 | 5.09 |
| Clc1ccc(-c2nc3ccccc3c3c2c(-c2ccc(Br)cc2)nn3-c2ccccc2)c(Cl)c1 | 4.09 | 5.22 | 3.74 | 5.15 | 5.22 |
| Brc1ccc(-c2nn(-c3ccccc3)c3c2c(-c2ccco2)nc2ccccc23)cc1 | 5.31 | 4.85 | 4.52 | 5.42 | 5.06 |
| Brc1ccc(-c2nn(-c3ccccc3)c3c2c(-c2cccs2)nc2ccccc23)cc1 | 4.63 | 4.37 | 4.46 | 5.28 | 5.03 |
| COc1ccccc1-c1nc2ccccc2c2c1c(-c1ccc(Br)cc1)nn2-c1ccccc1 | 5.28 | 3.91 | 4.52 | 5.26 | 5.07 |
| Brc1ccc(-c2nn(-c3ccccc3)c3c2c(-c2ccccc2)nc2ccccc23)cc1 | 4.84 | 4.91 | 4.84 | 5.22 | 5.31 |
| COc1cccc2c1C(=O)c1c(O)c3c(c(O)c1C2=O)C[C@@](O)(C(=O)CO)C[C@@H]3O[C@H]1C[C@H](N)[C@H](O)[C@H](C)O1 [DOXORUBICIN] | – | – | 5.21 | 5.62 | 6.65 |
| Cc1ccc(-c2nc3ccccc3c3c2c(-c2ccc(Br)cc2)nn3-c2ccccc2)cc1 | 5.08 | 4.71 | 4.58 | 5.34 | 5.61 |
| Clc1ccc(-c2nc3ccccc3c3c2c(-c2ccc(Br)cc2)nn3-c2ccccc2)cc1 | 5.02 | 4.42 | 4.68 | 5.26 | 5.06 |
| COc1ccccc1-c1nc2ccccc2c2c1c(-c1ccccc1)nn2-c1ccccc1 | 5.11 | 4.81 | 4.73 | 5.27 | 4.59 |
| Cc1ccc(-c2nc3ccccc3c3c2c(-c2ccccc2)nn3-c2ccccc2)cc1 | 5.13 | 4.62 | 4.48 | 5.30 | 4.25 |
